Measured values from paper PMC10017709, “Structural basis of selective cannabinoid CB2 receptor activation” (Nature Communications, 2023).
“And” between values parts separate entries of the source, which are not always exact repeats. Identical values can stand only once. Like-named read-outs stand apart in the source and are kept apart here.

Legend:
CB2R-Quadruple^TM1,7 = CB2R-Quadruple^TM1,7 (Homo sapiens, UniProt P34972, C40S/K279T/K33Q/V36I); experiment: [3H]CP55,940 displacement assay, CB2R quadruple mutant; format: binding; settings: QuadrupleTM1,7, individual replicates
CB1R-L359^6.51V = CB1R-L359^6.51V (Homo sapiens, UniProt P21554, L359V); experiment: [3H]CP55,940 displacement assay, CB1R L359V mutant; format: binding
CB2R WT = CB2R WT (Homo sapiens, UniProt P34972); experiment: [35S]GTPγS G protein activation assay, CB2R WT; format: biochemical; settings: for Emax: CB2R WT, read-out: Emax (%); for [35S]GTPγS binding, percentage of CP55,940: individual replicates
hCB2R = target: T1, hCB2R (Homo sapiens, UniProt P34972); experiment: [3H]RO6957022 competition association assay; format: binding; settings: individual replicates
T1 construct: host or cells: CHO-K1 (CHOK1_hCB2bgal, PathHunter), membranes

CB1R-H270^ECL2L = CB1R-H270^ECL2L (Homo sapiens, UniProt P21554, H270L); experiment: [3H]CP55,940 displacement assay, CB1R H270L mutant; format: binding
CB2R-L182^ECL2I = CB2R-L182^ECL2I (Homo sapiens, UniProt P34972, L182I); experiment: [35S]GTPγS assay, CB2R L182I mutant; format: biochemical; settings: L182I mutant; at 10 µM compared to WT; read-out: Emax (%)
CB1R I267ECL2L = CB1R I267ECL2L (Homo sapiens, UniProt P21554, I267L); experiment: [35S]GTPγS assay, CB1R I267L mutant; format: biochemical; settings: CB1R I267L; 10 µM agonist
CB2R-H95^2.65A = CB2R-H95^2.65A (Homo sapiens, UniProt P34972, H95A); experiment: [35S]GTPγS assay, CB2R H95A mutant; format: biochemical
CB1R D266ECL2E = target: T2, CB1R D266ECL2E (Homo sapiens, UniProt P21554, D266E); experiment: [35S]GTPγS assay, CB1R D266E mutant; format: biochemical; settings: CB1R D266E; 10 µM agonist
T2 construct: The WT CB1R and CB2R genes were subcloned into vector pcDNA3.1; HA signal peptide (N); expressed in transfected cells; host or cells: HEK293T (transient, membrane homogenates)

CB2R-E181^ECL2D = CB2R-E181^ECL2D (Homo sapiens, UniProt P34972, E181D); experiment: [35S]GTPγS assay, CB2R E181D mutant; format: biochemical; settings: E181D mutant; at 10 µM compared to WT; read-out: Emax (%)
Sequence of CB2R-E181^ECL2D (P34972 whole entry E181D): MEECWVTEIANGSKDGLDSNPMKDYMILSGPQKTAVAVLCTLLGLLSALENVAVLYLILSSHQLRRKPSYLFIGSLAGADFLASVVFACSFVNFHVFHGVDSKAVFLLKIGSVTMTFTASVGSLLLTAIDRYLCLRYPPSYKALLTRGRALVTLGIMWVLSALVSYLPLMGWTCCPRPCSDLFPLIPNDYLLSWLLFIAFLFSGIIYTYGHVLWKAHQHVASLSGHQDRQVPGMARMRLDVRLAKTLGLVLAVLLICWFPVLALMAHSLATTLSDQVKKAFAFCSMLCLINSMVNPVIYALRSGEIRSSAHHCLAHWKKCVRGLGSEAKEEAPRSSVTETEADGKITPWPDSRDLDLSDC

Sequence of CB2R-Quadruple^TM1,7 (P34972 whole entry K33Q/V36I/C40S/K279T): as the sequence (P34972 whole entry E181D) above, with K33Q, V36I, C40S, D181E, K279T counted along it
Sequence of CB1R-H270^ECL2L (P21554 whole entry H270L): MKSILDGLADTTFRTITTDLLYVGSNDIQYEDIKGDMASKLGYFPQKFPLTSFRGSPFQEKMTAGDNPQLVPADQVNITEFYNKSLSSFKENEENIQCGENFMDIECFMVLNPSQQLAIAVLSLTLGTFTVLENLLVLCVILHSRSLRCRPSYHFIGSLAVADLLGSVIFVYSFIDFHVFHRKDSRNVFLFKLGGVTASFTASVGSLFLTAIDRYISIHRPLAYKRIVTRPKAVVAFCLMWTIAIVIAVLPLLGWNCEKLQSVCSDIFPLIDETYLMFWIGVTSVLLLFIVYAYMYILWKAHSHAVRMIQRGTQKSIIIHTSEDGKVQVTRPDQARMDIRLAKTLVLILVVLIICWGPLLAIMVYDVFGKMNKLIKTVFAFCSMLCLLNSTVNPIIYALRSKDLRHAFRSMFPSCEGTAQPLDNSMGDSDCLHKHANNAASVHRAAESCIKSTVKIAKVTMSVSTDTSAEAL
Sequence of CB1R-L359^6.51V (P21554 whole entry L359V): as the sequence (P21554 whole entry H270L) above, with L270H, L359V counted along it
T1 sequence (P34972 whole entry): as the sequence (P34972 whole entry E181D) above, with D181E counted along it
Sequence of CB2R WT (P34972 whole entry): as the sequence (P34972 whole entry E181D) above, with D181E counted along it
Sequence of CB2R-H95^2.65A (P34972 whole entry H95A): as the sequence (P34972 whole entry E181D) above, with H95A, D181E counted along it
T2 sequence (P21554 whole entry D266E): as the sequence (P21554 whole entry H270L) above, with D266E, L270H counted along it
Sequence of CB2R-L182^ECL2I (P34972 whole entry L182I): as the sequence (P34972 whole entry E181D) above, with D181E, L182I counted along it
Sequence of CB1R I267ECL2L (P21554 whole entry I267L): as the sequence (P21554 whole entry H270L) above, with I267L, L270H counted along it

**Q.** How did the “percentage specific [3H]CP55,940 binding” value (CB2R-Quadruple^TM1,7; log [ligand] (M) -6) turn out when `CC(C)(C)[C@@H](CO)NC(=O)c1nn(-c2c[n+]([O-])ccn2)c2c1C[C@@H]1C[C@H]21` [APD371] was run?
**A.** The value was 31.56% and 68.45% and 21.77%.

**Q.** And the “percentage specific [3H]CP55,940 binding” value (CB2R-Quadruple^TM1,7; log [ligand] (M) -7)?
**A.** The value was 107.34% and 102.91% and 64.85%.

**Q.** And the “percentage specific [3H]CP55,940 binding” value (CB2R-Quadruple^TM1,7; log [ligand] (M) -8)?
**A.** The value was 162.50% and 142.72% and 87.25%.

**Q.** What about the “percentage specific [3H]CP55,940 binding” value (CB2R-Quadruple^TM1,7; log [ligand] (M) -9) of the same molecule?
**A.** Its value is 116.72% and 143.53% and 100.93%.

**Q.** What about the “percentage specific [3H]CP55,940 binding” value (CB2R-Quadruple^TM1,7; log [ligand] (M) -10) of the same molecule?
**A.** Its value is 74.84% and 102.27% and 99.53%.

**Q.** And the “Displacement (%) of [3H]CP55,940” value (CB1R-L359^6.51V; CB1R L359V, 10 µM compound)?
**A.** Its value is 18 ± 9%.

**Q.** And the “percentage specific [3H]CP55,940 binding” value (CB1R-L359^6.51V; CB1R L3596.51V, 10 µM ligand, replicates 1-3)?
**A.** Its value is 78.52 percentage and 68.29 percentage and 98.34 percentage.

**Q.** What about the Emax (CB2R WT; maximum effect at 10 µM compared to WT (Suppl. Table 6)) of the same molecule?
**A.** The Emax was 109 ± 3%.

**Q.** What about the Emax (CB2R WT; maximum effect compared to CP55,940) of the same molecule?
**A.** The Emax was 134 ± 12%.

**Q.** What about the “[35S]GTPγS binding, percentage of CP55,940” value (CB2R WT; log [agonist] (M) -5) of the same molecule?
**A.** The value was 148.28% and 110.29% and 144.01%.

**Q.** What about the “[35S]GTPγS binding, percentage of CP55,940” value (CB2R WT; log [agonist] (M) -6) of the same molecule?
**A.** The value was 121.47% and 91.68% and 110.37%.

**Q.** And the “[35S]GTPγS binding, percentage of CP55,940” value (CB2R WT; log [agonist] (M) -7)?
**A.** The value was 71.38% and 61.86% and 107.40%.

**Q.** What about the “[35S]GTPγS binding, percentage of CP55,940” value (CB2R WT; log [agonist] (M) -8) of the same molecule?
**A.** The value was 40.70% and 28.22% and 92.24%.

**Q.** What about the “[35S]GTPγS binding, percentage of CP55,940” value (CB2R WT; log [agonist] (M) -9) of the same molecule?
**A.** The value was -4.49% and -11.58% and 35.79%.

**Q.** What about the “[35S]GTPγS binding, percentage of CP55,940” value (CB2R WT; log [agonist] (M) -10) of the same molecule?
**A.** Its value is 14.57% and -14.11% and 7.29%.

**Q.** And the “percentage specific [3H]RO6957022 binding (competition association)” value (hCB2R; Time 1 min)?
**A.** Its value is -7.10% and 4.75% and 12.65%.

**Q.** What about the “percentage specific [3H]RO6957022 binding (competition association)” value (hCB2R; Time 3 min) of the same molecule?
**A.** Its value is 13.92% and 19.07% and 26.36%.

**Q.** And the “percentage specific [3H]RO6957022 binding (competition association)” value (hCB2R; Time 5 min)?
**A.** The value was 13.96% and 13.94% and 24.44%.

**Q.** What about the “percentage specific [3H]RO6957022 binding (competition association)” value (hCB2R; Time 7 min) of the same molecule?
**A.** Its value is 24.14% and 47.87% and 28.29%.

**Q.** And the “percentage specific [3H]RO6957022 binding (competition association)” value (hCB2R; Time 10 min)?
**A.** Its value is 24.18% and 36.84% and 30.72%.

**Q.** What about the “percentage specific [3H]RO6957022 binding (competition association)” value (hCB2R; Time 20 min) of the same molecule?
**A.** Its value is 40.15% and 32.14% and 34.58%.

**Q.** What about the “percentage specific [3H]RO6957022 binding (competition association)” value (hCB2R; Time 30 min) of the same molecule?
**A.** The value was 39.61% and 32.25% and 36.63%.

**Q.** And the “percentage specific [3H]RO6957022 binding (competition association)” value (hCB2R; Time 45 min)?
**A.** Its value is 20.89% and 29.77% and 37.77%.

**Q.** What about the “percentage specific [3H]RO6957022 binding (competition association)” value (hCB2R; Time 60 min) of the same molecule?
**A.** The value was 31.24% and 38.79% and 36.98%.

**Q.** And the “percentage specific [3H]RO6957022 binding (competition association)” value (hCB2R; Time 90 min)?
**A.** Its value is 31.73% and 32.90% and 39.73%.

**Q.** What about the “percentage specific [3H]RO6957022 binding (competition association)” value (hCB2R; Time 120 min) of the same molecule?
**A.** Its value is 27.67% and 36.63% and 31.55%.

**Q.** What about the “percentage specific [3H]CP55,940 binding” value (CB1R-H270^ECL2L; CB1R H270ECL2L, 10 µM ligand, replicates 1-3) of the same molecule?
**A.** Its value is 89.52 percentage and 87.15 percentage and 98.55 percentage.

**Q.** And the “Displacement (%) of [3H]CP55,940” value (CB1R-H270^ECL2L; CB1R H270L, 10 µM compound)?
**A.** The value was 8 ± 3%.

**Q.** And the Emax (CB2R-L182^ECL2I)?
**A.** Its Emax is 17 ± 4%.

**Q.** And the Agonist-mediated activation (CB1R I267ECL2L)?
**A.** Its Agonist-mediated activation is 0.9 ± 0.0 fold over its basal.

**Q.** And the “drop in potency compared to WT” value (CB2R-H95^2.65A; H95A mutant vs WT, [35S]GTPγS)?
**A.** Its value is 158 fold.

**Q.** And the Emax (CB2R-H95^2.65A; H95A mutant, at 10 µM compared to WT, read-out: Emax (%))?
**A.** The Emax was 50 ± 1%.

**Q.** And the Agonist-mediated activation (CB1R D266ECL2E)?
**A.** The Agonist-mediated activation was 0.9 ± 0.1 fold over its basal.

**Q.** What about the Emax (CB2R-E181^ECL2D) of the same molecule?
**A.** The Emax was 39 ± 6%.
